Patent publication US8653100B2 (AbbVie Inc., priority 2008, dated 2014)
Counter-ions that a name gives are not always drawn.

Key:
[1] = biological target: human GlyT1c (Homo sapiens (Human), UniProt P48067); experiment: [3H]-Glycine uptake into recombinant CHO cells expressing human GlyT1; format: cell-based; details: hGlyT1c_5_CHO cells, 200 nM [3H]-glycine
Description: [^3H]-Glycine uptake into recombinant CHO cells expressing human GlyT1: Human GlyT1c expressing recombinant hGlyT1c—5_CHO cells were plated at 20,000 cells per well in 96 well Cytostar-T scintillation microplates (Amersham Biosciences) and cultured to sub-confluency for 24 h. […] The plates were placed in a Wallac Microbeta (PerkinElmer) and continuously counted by solid phase scintillation spectrometry during up to 3 hours. […] IC50 calculations were made by four-parametric logistic nonlinear regression analysis (GraphPad Prism) using determinations within the range of linear increase of [^3H]-glycine incorporation between 60 and 120 min.

[2] = biological target: human GlyT1c transporter (Homo sapiens (Human), UniProt P48067); experiment: Radioligand binding assay using recombinant CHO cell membranes expressing human GlyT1; details: examples 88-204, radioligand not specified by footnote, read-out: radioligand binding Kiapp
Chain of human GlyT1c transporter (P48067 whole entry): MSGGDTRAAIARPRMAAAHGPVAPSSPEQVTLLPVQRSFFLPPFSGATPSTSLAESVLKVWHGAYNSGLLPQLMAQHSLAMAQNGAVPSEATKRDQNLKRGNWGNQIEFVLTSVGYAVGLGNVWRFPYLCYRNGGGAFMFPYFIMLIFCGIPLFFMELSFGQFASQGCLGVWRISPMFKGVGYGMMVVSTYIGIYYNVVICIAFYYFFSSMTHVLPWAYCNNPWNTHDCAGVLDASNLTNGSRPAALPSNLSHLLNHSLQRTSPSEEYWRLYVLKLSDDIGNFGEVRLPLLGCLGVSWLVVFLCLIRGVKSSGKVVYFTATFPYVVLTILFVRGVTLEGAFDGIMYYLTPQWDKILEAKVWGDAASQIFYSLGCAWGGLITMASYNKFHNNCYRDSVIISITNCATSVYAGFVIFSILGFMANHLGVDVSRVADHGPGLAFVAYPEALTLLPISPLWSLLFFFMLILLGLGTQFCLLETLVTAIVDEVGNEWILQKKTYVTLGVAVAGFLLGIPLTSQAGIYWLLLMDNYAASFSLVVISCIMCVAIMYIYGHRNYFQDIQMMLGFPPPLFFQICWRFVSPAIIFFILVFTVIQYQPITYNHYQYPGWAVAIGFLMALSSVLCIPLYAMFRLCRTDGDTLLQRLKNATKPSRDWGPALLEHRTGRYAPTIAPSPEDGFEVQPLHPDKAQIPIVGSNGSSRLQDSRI
Procedure, shortened: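 Competition binding of [^3H]-(R)-NPTS (0.5 nM) to CHO membranes expressing human GlyT1c (50 μg/ml protein) in pH 7.5 Hepes/NaCl buffer with 1% DMSO, 1 h at room temperature. Non-specific binding defined with 10 μM Org24598; filtration and scintillation counting, one-site fit, Ki via Cheng-Prusoff.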

Chain of human GlyT1c (P48067 whole entry): as above

Row | SMILES | IC50 [1] | Ki [2]
1 | CCCS(=O)(=O)NCCOc1ccc2c(c1)C(C1(c3ccc(Cl)cc3OC)CCC1)NCC2 (centres unmarked) [Example 76, N-[2-({1-[1-(4-Chloro-2-methoxyphenyl)cyclobutyl]-1,2,3,4-tetrahydroisoquinolin-7-yl}oxy)ethyl]propane-1-sulfonamide hydrochloride] | ≤ 0.1 µM | –
2 | CCCS(=O)(=O)NCCOc1ccc2c(c1)C(C1(c3ccc(F)cc3)CCC1)N(C(=O)C(F)(F)F)CC2 (centres unmarked) [Example 70, N-[2-({1-[1-(4-Fluorophenyl)cyclobutyl]-2-(trifluoroacetyl)-1,1,3,4-tetrahydroisoquinolin-7-yl}oxy)ethyl]propane-1-sulfonamide] | ≤ 100 µM | –
3 | CCCS(=O)(=O)NCCOc1ccc2c(c1)C(C1(c3cccc(Cl)c3)CCC1)N(CCN)CC2 (centres unmarked) [Example 78, N-[2-({2-(2-Aminoethyl)-1-[1-(3-chlorophenyl)cyclobutyl]-1,2,3,4-tetrahydroisoquinolin-7-yl}oxy)ethyl]propane-1-sulfonamide bis(trifluoroacetate)] | ≤ 10 µM | –
4 | CCCNc1ccc(S(=O)(=O)NCCOc2ccc3c(c2)C(C2(c4ccc(Cl)cc4)CCC2)NCC3)cn1 (centres unmarked) [Example 59, N-(2-(1-(1-(4-Chlorophenyl)cyclobutyl)-1,2,3,4-tetrahydroisoquinolin-7-yloxy)ethyl)-6-(propylamino)pyridine-3-sulfonamide hydrochloride] | ≤ 10 µM | –
5 | O=S(=O)(NCCOc1ccc2c(c1)C(C1(c3ccc(Cl)cc3)CCC1)NCC2)c1c[nH]cn1 (centres unmarked) [Example 57, N-(2-(1-(1-(4-Chlorophenyl)cyclobutyl)-1,2,3,4-tetrahydroisoquinolin-7-yloxy)ethyl)-1H-imidazole-4-sulfonamide hydrochloride] | ≤ 0.1 µM | –
6 | NCCS(=O)(=O)NCCOc1ccc2c(c1)C(C1(c3ccc(Cl)cc3)CCC1)NCC2 (centres unmarked) [Example 154, 2-Amino-N-[2-({1-[1-(4-chlorophenyl)cyclobutyl]-1,2,3,4-tetrahydroisoquinolin-7-yl}oxy)ethyl]ethanesulfonamide] | ≤ 1 µM | –
7 | CCCCS(=O)(=O)NCCOc1ccc2c(c1)C(C1(c3ccc(Cl)cc3)CCC1)N(C)CC2 (centres unmarked) [Example 40, Butane-1-sulfonic acid (2-{1-[1-(4-chloro-phenyl)-cyclobutyl]-2-methyl-1,2,3,4-tetrahydro-isoquinolin-7-yloxy}-ethyl)-amide] | ≤ 1 µM | –
8 | Cc1nc(S(=O)(=O)NCCOc2ccc3c(c2)C(C2(c4ccc(Cl)cc4)CCC2)NCC3)cn1C (centres unmarked) [Example 52, 1-(1-(4-Chlorophenyl)cyclobutyl)-7-(2-(1,2-dimethyl-1H-imidazole-4-sulfonamido)ethoxy)-1,2,3,4-tetrahydroisoquinolinium chloride] | ≤ 10 µM | –
9 | CCOC(=O)N1CCN(S(=O)(=O)NCCOc2ccc3c(c2)C(C2(c4ccc(Cl)cc4)CCC2)NCC3)CC1 (centres unmarked) [Example 54, Ethyl 4-(N-(2-(1-(1-(4-chlorophenyl)cyclobutyl)-1,2,3,4-tetrahydroisoquinolin-7-yloxy)ethyl)sulfamoyl)piperazine-1-carboxylate hydrochloride] | ≤ 10 µM | –
10 | O=S(=O)(NCCOc1ccc2c(c1)C(C1(c3ccc(Cl)cc3)CCC1)NCC2)C1CCCNC1 (centres unmarked) [Example 61, N-(2-(1-(1-(4-Chlorophenyl)cyclobutyl)-1,2,3,4-tetrahydroisoquinolin-7-yloxy)ethyl)piperidine-3-sulfonamide dihydrochloride] | ≤ 0.1 µM | –
11 | O=S(=O)(NCCOc1ccc2c(c1)C(C1(c3ccc(Cl)cc3)CCC1)NCC2)N1CCNCC1 (centres unmarked) [Example 55, N-(2-(1-(1-(4-Chlorophenyl)cyclobutyl)-1,2,3,4-tetrahydroisoquinolin-7-yloxy)ethyl)piperazine-1-sulfonamide dihydrochloride] | ≤ 10 µM | –
12 | CCCS(=O)(=O)NCCN(CCOc1ccc2c(c1)C(C1(c3ccc(Cl)cc3)CCC1)NCC2)S(=O)(=O)CCC (centres unmarked) [Example 45, Propane-1-sulfonic acid (2-{1-[1-(4-chloro-phenyl)-cyclobutyl]-1,2,3,4-tetrahydro-isoquinolin-7-yloxy}-ethyl)-[2-(propane-1-sulfonylamino)-ethyl]amide] | ≤ 1 µM | –
13 | O=S(=O)(NCCOc1ccc2c(c1)C(C1(c3ccc(Cl)cc3)CCC1)NCC2)C1CCNC1 (single isomer, unassigned) [Example 151, N-[2-({1-[1-(4-Chlorophenyl)cyclobutyl]-1,2,3,4-tetrahydroisoquinolin-7-yl}oxy)ethyl]pyrrolidine-3-sulfonamide dihydrochloride] | – | ≤ 0.1 µM
14 | CCCS(=O)(=O)NCCNc1ccc2c(c1)C(C1(c3ccc(Cl)cc3)CCC1)NCC2 (centres unmarked) [Example 89, N-[2-({1-[1-(4-Chlorophenyl)cyclobutyl]-1,2,3,4-tetrahydroisoquinolin-7-yl}amino)ethyl]propane-1-sulfonamide dihydrochloride] | – | ≤ 0.1 µM
15 | O=S(=O)(NCCOc1ccc2c(c1)C(C1(c3ccc(Cl)cc3)CCC1)NCC2)c1ccc(CCCF)cc1 (centres unmarked) [Example 114, N-[2-({1-[1-(4-Chlorophenyl)cyclobutyl]-1,2,3,4-tetrahydroisoquinolin-7-yl}oxy)ethyl]-4-(3-fluoropropyl)benzenesulfonamide hydrochloride] | – | ≤ 1 µM

Continued, values first:

Row | IC50 [1] | Ki [2] | SMILES
16 | ≤ 100 µM | – | CCCCS(=O)(=O)NCCOc1ccc2c(c1)C(C1(c3ccc(Cl)cc3)CCC1)N(C(=O)NCC)CC2 (centres unmarked) [Example 39, 7-[2-(Butane-1-sulfonylamino)-ethoxy]-1-[1-(4-chloro-phenyl)-cyclobutyl]-3,4-dihydro-1H-isoquinoline-2-carboxylic acid ethylamide hydrochloride]
17 | ≤ 10 µM | – | CCCS(=O)(=O)NCCOc1ccc2c(c1)CCNC2C1(c2ccc(Cl)cc2)CCC1 (centres unmarked) [Example 68, N-[2-({1-[1-(4-Chlorophenyl)cyclobutyl]-1,2,3,4-tetrahydroisoquinolin-6-yl}oxy)ethyl]propane-1-sulfonamide hydrochloride]
18 | ≤ 100 µM | – | CCS(=O)(=O)N1CCN(c2ccc3c(c2)C(C2(c4ccc(Cl)cc4)CCC2)NCC3)CC1 (centres unmarked) [Example 41, 1-[1-(4-Chloro-phenyl)-cyclobutyl]-7-(4-ethanesulfonyl-piperazin-1-yl)-1,2,3,4-tetrahydro-isoquinoline]
19 | ≤ 100 µM | – | CC(C)C(=O)NCCOc1ccc2c(c1)C(C1(c3ccc(Cl)cc3)CCC1)NCC2 (centres unmarked) [Example 5, N-(2-{1-[1-(4-Chloro-phenyl)-cyclobutyl]-1,2,3,4-tetrahydro-isoquinolin-7-yloxy}-ethyl)-isobutyramide]
20 | ≤ 0.1 µM | – | CCCS(=O)(=O)NCCOc1ccc2c(c1)C(C1(c3ccc(Cl)cc3)CCC1)NCC2(C)C (centres unmarked) [Example 67, N-[2-({1-[1-(4-Chlorophenyl)cyclobutyl]-4,4-dimethyl-1,2,3,4-tetrahydroisoquinolin-7-yl}oxy)ethyl]propane-1-sulfonamide hydrochloride]
21 | ≤ 10 µM | – | CCCS(=O)(=O)NCCOc1ccc2c(c1)C(C1(c3ccc(Cl)cc3)CCC1)N(C(=N)N)CC2 (centres unmarked) [Example 47, 1-[1-(4-Chloro-phenyl)-cyclobutyl]-7-[2-(propane-1-sulfonylamino)-ethoxy]-3,4-dihydro-1H-isoquinoline-2-carboxamidine]
22 | ≤ 10 µM | – | CCCS(=O)(=O)NCCOc1ccc2c(c1)C(C1(c3ccc(F)cc3)CCC1)N(N=O)CC2 (centres unmarked) [Example 74, N-[2-({1-[1-(4-Fluorophenyl)cyclobutyl]-2-nitroso-1,2,3,4-tetrahydroisoquinolin-7-yl}oxy)ethyl]propane-1-sulfonamide]
23 | ≤ 10 µM | – | O=S(=O)(CCCOc1ccc2c(c1)C(C1(c3ccc(Cl)cc3)CCC1)NCC2)N1CCOCC1 (centres unmarked) [Example 81, 1-[1-(4-Chlorophenyl)cyclobutyl]-7-[3-(morpholin-4-ylsulfonyl)propoxy]-1,2,3,4-tetrahydroisoquinoline hydrochloride]
24 | ≤ 10 µM | – | O=C(NCCOc1ccc2c(c1)C(C1(c3ccc(Cl)cc3)CCC1)NCC2)c1ccccc1 (centres unmarked) [Example 3, N-(2-{1-[1-(4-Chloro-phenyl)-cyclobutyl]-1,2,3,4-tetrahydro-isoquinolin-7-yloxy}-ethyl)-benzamide]
25 | ≤ 0.1 µM | – | O=S(=O)(NCCOc1ccc2c(c1)C(C1(c3ccc(F)cc3)CCC1)NCC2)c1cccnc1 (centres unmarked) [Example 66, N-[2-({1-[1-(4-Fluorophenyl)cyclobutyl]-1,2,3,4-tetrahydroisoquinolin-7-yl}oxy)ethyl]pyridine-3-sulfonamide hydrochloride]
26 | ≤ 1 µM | – | CCCS(=O)(=O)NCCOc1ccc2c(c1)C(C1(c3ccc(F)cc3)CCC1)N(c1ncc[nH]1)CC2 (centres unmarked) [Example 79, N-[2-({1-[1-(4-Fluorophenyl)cyclobutyl]-2-(1H-imidazol-2-yl)-1,2,3,4-tetrahydroisoquinolin-7-yl}oxy)ethyl]propane-1-sulfonamide]
27 | – | ≤ 0.1 µM | O=S(=O)(CCO)NCCOc1ccc2c(c1)C(C1(c3ccc(Cl)cc3)CCC1)NCC2 (centres unmarked) [Example 97, N-[2-({1-[1-(4-Chlorophenyl)cyclobutyl]-1,2,3,4-tetrahydroisoquinolin-7-yl}oxy)ethyl]-2-hydroxyethanesulfonamide hydrochloride]
28 | – | ≤ 10 µM | O=S(=O)(Nc1cccnc1Oc1ccc2c(c1)C(C1(c3ccc(Cl)cc3)CCC1)NCC2)c1cccnc1 (centres unmarked) [Example 136, N-[2-({1-[1-(4-Chlorophenyl)cyclobutyl]-1,2,3,4-tetrahydroisoquinolin-7-yl}oxy)pyridin-3-yl]pyridine-3-sulfonamide trihydrochloride]
29 | – | ≤ 0.1 µM | O=S(=O)(NCCOc1ccc2c(c1)C(C1(c3ccc(Cl)cc3)CCC1)NCC2)c1cn[nH]c1 (centres unmarked) [Example 153, N-[2-({1-[1-(4-Chlorophenyl)cyclobutyl]-1,2,3,4-tetrahydroisoquinolin-7-yl}oxy)ethyl]-1H-pyrazole-4-sulfonamide hydrochloride]
